US10053443B2, “2-phenylbenzofuran derivatives, method for preparing the same and use of the same for treating inflammatory disease” (KOREA RESEARCH INSTITUTE OF BIOSCIENCE AND BIOTECHNOLOGY, priority 2014, dated 2018)

How the values were obtained:
[1] = Toxicity test, single oral administration: toxicological changes in abdomen, chest and major organs (autopsy); type: in vivo; details: for Clinical sign: Abdominal cavity (toxicological changes, animals affected/total) / Clinical sign: Major organs (toxicological changes, animals affected/total) / Clinical sign: Thoracic cavity (toxicological changes, animals affected/total) / Mortality (animals dead/total) / Clinical sign: Abdominal cavity (toxicological changes), Total / Clinical sign: Major organs (toxicological changes), Total / Clinical sign: Thoracic cavity (toxicological changes), Total / Mortality, Total: single oral administration, mouse
Text: 1. Test Material and Control Material • Test material: compound of Example 4 • Storage condition: frozen storage • Control material: 10% DMSO+10% Tween 20 in PBS
2. Test System • Animal: female Balb/c • Animal provider: Koatech • Age and weight of animal • Age at the time of arrival: 5 week • Number at the time of arrival: 28 • Age at the start of administration: 6 week • Number at the start of administration: 28 ? • Weight at the start of administration: 16.1˜16.5 g
3. Administration Method and Preparation of Test Material • Administration method: single oral administration • Preparation of test material: Test materials were prepared by using 10% DMSO+10% Tween-20 in PBS as a solvent for each dose. The preparation was carried out immediately before the administration
On the 10th day after the administration, all the surviving animals were anesthetized with CO2 gas. Laparotomy was performed and the animals were sacrificed by venesection from the abdominal aorta. Then, all the internal organs of the animal were observed by the naked eye.
The compound of Example 4 was orally administered once to female Balb/c mouse at the doses of 250, 500, and 1000 mg/kg in order to obtain the information on acute toxicity of the compound of Example 4, followed by investigation of death rate, general symptoms, and weight changes for 10 days by autopsy.
After the administration of the compound of Example 4, the mice were autopsied on the last day, and the toxicological changes in the abdomen, chest and major organs were observed.

lung tissue sections = test: Histopathological analysis of lung (H&E, PAS) in asthma mice; type: in vivo, mouse; details: OVA asthma Balb/c mice, 5 or 15 mg/kg PO
Procedure: 6 week old Balb/c female mice in the average weight of 20 g were adapted for 1 week. 2 mg of aluminum hydroxide (A8222, Sigma, St. Louis, Mo.) and 20 μg of ovalbumin (A5503, sigma, St. Louis, Mo.) were suspended in phosphate buffer (pH 7.4). Each mouse was administered with 200 μl of the phosphate buffer suspension via intraperitoneal injection for sensitization at 2 weeks intervals. The mouse was forced to inhale 1% ovalbumin (OVA) through ultrasonic atomizer for 30 minutes a day for 3 days after the first intraperitoneal injection of ovalbumin. 24 hours after the antigen administration, airway hyperreactivity was measured. 48 hours later, a lethal dose of pentobarbital (Entobar, Hanlim Pharma. Co., Ltd.) was administered to the mouse. The bronchus was opened and the alveoli were washed with 1.4 ml of saline. Then, the test samples were obtained. The normal control (NC) was not administered with ovalbumin nor inhaled. The asthma induced group (OVA) was administered with ovalbumin and inhaled to induce bronchial asthma. […]
To evaluate the level of mucus production by investigating the increase of the number of goblet cells, the mucus secretion cells, the lung was extracted from the mouse without bronchoalveolar lavage. […] The proliferation of goblet cells was evaluated by measuring the ratio of the goblet cells selected by the staining above in bronchial epithelial cells.

COc1cc(CCCO)cc2cc(-c3ccc(C)cc3)oc12 [Example 4, 3-(7-methoxy-2-p-tolylbenzofuran-5-yl)propane-1-ol]
not observed: toxicological changes (abdomen, chest and major organs) ([1]; 250, 500, 1000 mg/kg single oral, autopsy on last day)
0/7: Clinical sign: Abdominal cavity (toxicological changes, animals affected/total) ([1]; 250 mg/kg, Day 1) | Clinical sign: Major organs (toxicological changes, animals affected/total) ([1]; 250 mg/kg, Day 1) | Clinical sign: Thoracic cavity (toxicological changes, animals affected/total) ([1]; 250 mg/kg, Day 1) | Mortality (animals dead/total) ([1]; 250 mg/kg, Day 1) | Clinical sign: Abdominal cavity (toxicological changes, animals affected/total) ([1]; 250 mg/kg, Day 7) | Clinical sign: Major organs (toxicological changes, animals affected/total) ([1]; 250 mg/kg, Day 7) | Clinical sign: Thoracic cavity (toxicological changes, animals affected/total) ([1]; 250 mg/kg, Day 7) | Mortality (animals dead/total) ([1]; 250 mg/kg, Day 7) | Clinical sign: Abdominal cavity (toxicological changes, animals affected/total) ([1]; 250 mg/kg, Day 8) | Clinical sign: Major organs (toxicological changes, animals affected/total) ([1]; 250 mg/kg, Day 8) | Clinical sign: Thoracic cavity (toxicological changes, animals affected/total) ([1]; 250 mg/kg, Day 8) | Mortality (animals dead/total) ([1]; 250 mg/kg, Day 8) | Clinical sign: Abdominal cavity (toxicological changes, animals affected/total) ([1]; 250 mg/kg, Day 9) | Clinical sign: Major organs (toxicological changes, animals affected/total) ([1]; 250 mg/kg, Day 9) | Clinical sign: Thoracic cavity (toxicological changes, animals affected/total) ([1]; 250 mg/kg, Day 9) | Mortality (animals dead/total) ([1]; 250 mg/kg, Day 9) | Clinical sign: Abdominal cavity (toxicological changes, animals affected/total) ([1]; 250 mg/kg, Day 10) | Clinical sign: Major organs (toxicological changes, animals affected/total) ([1]; 250 mg/kg, Day 10) | Clinical sign: Thoracic cavity (toxicological changes, animals affected/total) ([1]; 250 mg/kg, Day 10) | Mortality (animals dead/total) ([1]; 250 mg/kg, Day 10) | Clinical sign: Abdominal cavity (toxicological changes, animals affected/total) ([1]; 500 mg/kg, Day 1) | Clinical sign: Major organs (toxicological changes, animals affected/total) ([1]; 500 mg/kg, Day 1) | Clinical sign: Thoracic cavity (toxicological changes, animals affected/total) ([1]; 500 mg/kg, Day 1) | Mortality (animals dead/total) ([1]; 500 mg/kg, Day 1) | Clinical sign: Abdominal cavity (toxicological changes, animals affected/total) ([1]; 500 mg/kg, Day 7) | Clinical sign: Major organs (toxicological changes, animals affected/total) ([1]; 500 mg/kg, Day 7) | Clinical sign: Thoracic cavity (toxicological changes, animals affected/total) ([1]; 500 mg/kg, Day 7) | Mortality (animals dead/total) ([1]; 500 mg/kg, Day 7) | Clinical sign: Abdominal cavity (toxicological changes, animals affected/total) ([1]; 500 mg/kg, Day 8) | Clinical sign: Major organs (toxicological changes, animals affected/total) ([1]; 500 mg/kg, Day 8) | Clinical sign: Thoracic cavity (toxicological changes, animals affected/total) ([1]; 500 mg/kg, Day 8) | Mortality (animals dead/total) ([1]; 500 mg/kg, Day 8) | Clinical sign: Abdominal cavity (toxicological changes, animals affected/total) ([1]; 500 mg/kg, Day 9) | Clinical sign: Major organs (toxicological changes, animals affected/total) ([1]; 500 mg/kg, Day 9) | Clinical sign: Thoracic cavity (toxicological changes, animals affected/total) ([1]; 500 mg/kg, Day 9) | Mortality (animals dead/total) ([1]; 500 mg/kg, Day 9) | Clinical sign: Abdominal cavity (toxicological changes, animals affected/total) ([1]; 500 mg/kg, Day 10) | Clinical sign: Major organs (toxicological changes, animals affected/total) ([1]; 500 mg/kg, Day 10) | Clinical sign: Thoracic cavity (toxicological changes, animals affected/total) ([1]; 500 mg/kg, Day 10) | Mortality (animals dead/total) ([1]; 500 mg/kg, Day 10) | Clinical sign: Abdominal cavity (toxicological changes, animals affected/total) ([1]; 1000 mg/kg, Day 1) | Clinical sign: Major organs (toxicological changes, animals affected/total) ([1]; 1000 mg/kg, Day 1) | Clinical sign: Thoracic cavity (toxicological changes, animals affected/total) ([1]; 1000 mg/kg, Day 1) | Mortality (animals dead/total) ([1]; 1000 mg/kg, Day 1) | Clinical sign: Abdominal cavity (toxicological changes, animals affected/total) ([1]; 1000 mg/kg, Day 7) | Clinical sign: Major organs (toxicological changes, animals affected/total) ([1]; 1000 mg/kg, Day 7) | Clinical sign: Thoracic cavity (toxicological changes, animals affected/total) ([1]; 1000 mg/kg, Day 7) | Mortality (animals dead/total) ([1]; 1000 mg/kg, Day 7) | Clinical sign: Abdominal cavity (toxicological changes, animals affected/total) ([1]; 1000 mg/kg, Day 8) | Clinical sign: Major organs (toxicological changes, animals affected/total) ([1]; 1000 mg/kg, Day 8) | Clinical sign: Thoracic cavity (toxicological changes, animals affected/total) ([1]; 1000 mg/kg, Day 8) | Mortality (animals dead/total) ([1]; 1000 mg/kg, Day 8) | Clinical sign: Abdominal cavity (toxicological changes, animals affected/total) ([1]; 1000 mg/kg, Day 9) | Clinical sign: Major organs (toxicological changes, animals affected/total) ([1]; 1000 mg/kg, Day 9) | Clinical sign: Thoracic cavity (toxicological changes, animals affected/total) ([1]; 1000 mg/kg, Day 9) | Mortality (animals dead/total) ([1]; 1000 mg/kg, Day 9) | Clinical sign: Abdominal cavity (toxicological changes, animals affected/total) ([1]; 1000 mg/kg, Day 10) | Clinical sign: Major organs (toxicological changes, animals affected/total) ([1]; 1000 mg/kg, Day 10) | Clinical sign: Thoracic cavity (toxicological changes, animals affected/total) ([1]; 1000 mg/kg, Day 10) | Mortality (animals dead/total) ([1]; 1000 mg/kg, Day 10)
significantly reduced: accumulation of inflammatory cells around bronchiole (H&E) (lung tissue sections; FIG. 6) | proliferation of goblet cells (PAS, mucus production) (lung tissue sections; FIG. 7)
0: Clinical sign: Abdominal cavity (toxicological changes), Total ([1]; 250 mg/kg) | Clinical sign: Major organs (toxicological changes), Total ([1]; 250 mg/kg) | Clinical sign: Thoracic cavity (toxicological changes), Total ([1]; 250 mg/kg) | Mortality, Total ([1]; 250 mg/kg) | Clinical sign: Abdominal cavity (toxicological changes), Total ([1]; 500 mg/kg) | Clinical sign: Major organs (toxicological changes), Total ([1]; 500 mg/kg) | Clinical sign: Thoracic cavity (toxicological changes), Total ([1]; 500 mg/kg) | Mortality, Total ([1]; 500 mg/kg) | Clinical sign: Abdominal cavity (toxicological changes), Total ([1]; 1000 mg/kg) | Clinical sign: Major organs (toxicological changes), Total ([1]; 1000 mg/kg) | Clinical sign: Thoracic cavity (toxicological changes), Total ([1]; 1000 mg/kg) | Mortality, Total ([1]; 1000 mg/kg)
